Measurements taken from ChEMBL document CHEMBL3232928, “Fragment-to-hit-to-lead discovery of a novel pyridylurea scaffold of ATP competitive dual targeting type II topoisomerase inhibiting antibacterial agents” (J Med Chem, 2013).
In brackets after ≈: the same amount, converted by molar mass.

Experiments:
[1] = Antibacterial activity against fluoroquinolone-resistant Streptococcus pneumoniae D39 NCTC 7466 expressing ParE/GyrB T172A mutant assessed as growth inhibition after 18 to 24 hrs by CLSI broth microdilution method; assay type: functional
[2] = Antibacterial activity against fluoroquinolone-resistant Streptococcus pneumoniae D39 NCTC 7466 expressing ParE/GyrB K143I mutant assessed as growth inhibition after 18 to 24 hrs by CLSI broth microdilution method; assay type: functional
[3] = Antibacterial activity against fluoroquinolone-resistant Streptococcus pneumoniae D39 NCTC 7466 expressing GyrB/ParE T172A mutant assessed as growth inhibition after 18 to 24 hrs by CLSI broth microdilution method; assay type: functional
[4] = Antibacterial activity against fluoroquinolone-resistant Streptococcus pneumoniae D39 NCTC 7466 expressing GyrB T172A/ParE T172A double mutant assessed as growth inhibition after 18 to 24 hrs by CLSI broth microdilution method; assay type: functional
[5] = Antibacterial activity against fluoroquinolone-resistant Streptococcus pneumoniae D39 NCTC 7466 expressing GyrB K143A/ParE T172A double mutant assessed as growth inhibition after 18 to 24 hrs by CLSI broth microdilution method; assay type: functional
[6] = Antibacterial activity against fluoroquinolone-resistant Streptococcus pneumoniae D39 NCTC 7466 expressing GyrA S81F/ParC S79F double mutant assessed as growth inhibition after 18 to 24 hrs by CLSI broth microdilution method; assay type: functional
[7] = Antibacterial activity against fluoroquinolone-resistant Streptococcus pneumoniae D39 NCTC 7466 expressing GyrA S81Y/ParC S79F double mutant assessed as growth inhibition after 18 to 24 hrs by CLSI broth microdilution method; assay type: functional
[8] = Antibacterial activity against fluoroquinolone-resistant Streptococcus pneumoniae D39 NCTC 7466 expressing GyrA S81F/ParC S79Y double mutant assessed as growth inhibition after 18 to 24 hrs by CLSI broth microdilution method; assay type: functional
Streptococcus pneumoniae = experiment: microbe, parasite or virus in culture
Description: Antibacterial activity against wild type Streptococcus pneumoniae assessed as growth inhibition after 18 to 24 hrs by CLSI broth microdilution method

DNA gyrase subunit B = DNA gyrase subunit B (Staphylococcus aureus, UniProt P0A0K8); experiment: Inhibition of ATPase activity in Staphylococcus aureus GyrB tetramer in presence of Escherichia coli GyrA by ammonium molybdate/malachite green-based absorbance assay
DNA gyrase subunit B, sequence (P0A0K8 whole entry): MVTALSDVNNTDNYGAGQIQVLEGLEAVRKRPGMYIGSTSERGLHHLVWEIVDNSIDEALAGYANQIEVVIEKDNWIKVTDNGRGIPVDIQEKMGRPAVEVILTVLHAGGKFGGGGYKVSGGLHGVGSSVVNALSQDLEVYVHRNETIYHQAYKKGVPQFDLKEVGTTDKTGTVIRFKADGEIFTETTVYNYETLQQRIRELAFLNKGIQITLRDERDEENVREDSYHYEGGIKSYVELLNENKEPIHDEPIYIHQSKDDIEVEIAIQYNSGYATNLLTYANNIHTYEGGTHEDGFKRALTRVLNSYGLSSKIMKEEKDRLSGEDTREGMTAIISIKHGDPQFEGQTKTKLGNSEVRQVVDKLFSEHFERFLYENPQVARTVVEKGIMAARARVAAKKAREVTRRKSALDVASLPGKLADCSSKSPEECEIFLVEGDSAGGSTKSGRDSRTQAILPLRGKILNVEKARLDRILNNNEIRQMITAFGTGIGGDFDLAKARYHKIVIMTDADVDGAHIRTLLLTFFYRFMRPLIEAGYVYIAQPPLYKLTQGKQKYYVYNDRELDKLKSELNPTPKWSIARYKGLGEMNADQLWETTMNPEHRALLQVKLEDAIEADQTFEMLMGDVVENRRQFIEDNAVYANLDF

[9] = Inhibition of ATPase activity in Escherichia coli GyrA/GyrB by ammonium molybdate/malachite green-based absorbance assay
[10] = Inhibition of ATPase activity in Escherichia coli ParC/ParE by ammonium molybdate/malachite green-based absorbance assay
[11] = Inhibition of ATPase activity in Escherichia coli ParE by ammonium molybdate/malachite green-based absorbance assay
[12] = Antibacterial activity against Streptococcus pneumoniae D39 NCTC 7466 assessed as growth inhibition after 18 to 24 hrs by CLSI broth microdilution method; assay type: functional
Staphylococcus aureus [13] = experiment: Antibacterial activity against methicillin-sensitive wild type Staphylococcus aureus assessed as growth inhibition after 18 to 24 hrs by CLSI broth microdilution method; assay type: functional
Moraxella catarrhalis = experiment: Antibacterial activity against wild type Moraxella catarrhalis ATCC 43617 assessed as growth inhibition after 18 to 24 hrs by CLSI broth microdilution method; assay type: functional
[14] = Antibacterial activity against wild type Haemophilus influenzae Rd KW20 ATCC 51907 assessed as growth inhibition after 18 to 24 hrs by CLSI broth microdilution method; assay type: functional
Escherichia coli [15] = experiment: Antibacterial activity against wild type Escherichia coli W3110 assessed as growth inhibition after 18 to 24 hrs by CLSI broth microdilution method; assay type: functional
Escherichia coli [16] = experiment: Antibacterial activity against tolC efflux pump deficient Escherichia coli W3110 assessed as growth inhibition after 18 to 24 hrs by CLSI broth microdilution method; assay type: functional
[17] = Octanol-phosphate buffer partition coefficient, log D of the compound at pH 7.4 after 1 hr by shake flask method; assay type: physicochemical
[18] = Solubility of the compound; assay type: physicochemical
[19] = Unbound fraction in human at 10 uM after 16 hrs by LC-MS/MS analysis; assay type: ADME; details: plasma
[20] = Dissociation constant, pKa of the compound; assay type: physicochemical
Staphylococcus aureus [21] = experiment: Antibacterial activity against methicillin-resistant and […] Staphylococcus aureus assessed as growth inhibition after 18 to 24 hrs by CLSI broth microdilution method; assay type: functional
[22] = Clearance in rat plasma at 10 mg/kg, iv administered 15 mins of infusion measured for 0 to 24 hrs by LC-MS/MS analysis; assay type: ADME, organism-based; design: dose 10 mg/kg, route intravenous
[23] = Volume of distribution at steady state in rat plasma at 10 mg/kg, iv administered 15 mins of infusion measured for 0 to 24 hrs by LC-MS/MS analysis; assay type: ADME, organism-based; design: dose 10 mg/kg, route intravenous; details: read-out: Vdss

SMILES | IC50 (DNA gyrase subunit B) | IC50 [9] | IC50 [10] | IC50 [11] | MIC [12] | MIC (Staphylococcus aureus [13]) | MIC (Moraxella catarrhalis) | MIC [14] | MIC (Escherichia coli [15]) | MIC (Escherichia coli [16]) | logD at 1 h [17] | solubility [18] | fraction unbound at 16 h, 10 µM [19] | MIC (Staphylococcus aureus [21]) | clearance [22] | Vd [23] | further results
CN(C)[C@@H]1C(O)=C(C(N)=O)C(=O)[C@@]2(O)C(O)=C3C(=O)c4c(O)cccc4[C@@](C)(O)[C@H]3C[C@@H]12 [TETRACYCLINE] |  |  |  |  |  |  |  |  |  |  |  |  |  |  |  |  | MIC [1]: 0.25 µg/mL (≈ 0.563 µM); MIC [2]: 0.25 µg/mL (≈ 0.563 µM); MIC [3]: 0.25 µg/mL (≈ 0.563 µM); MIC [4]: 0.25 µg/mL (≈ 0.563 µM); MIC [5]: 0.25 µg/mL (≈ 0.563 µM); MIC [6]: 0.13 µg/mL (≈ 0.293 µM); MIC [7]: 0.25 µg/mL (≈ 0.563 µM); MIC [8]: 0.13 µg/mL (≈ 0.293 µM); MIC (Streptococcus pneumoniae): 0.25 µg/mL (≈ 0.563 µM)
CCNC(=O)Nc1cc(-c2nc(C(F)(F)F)cs2)c(-c2cncc(-c3nnn[nH]3)c2)cn1 | < 10 nM | < 10 nM | 260 nM | < 10 nM | 1.4 µg/mL (≈ 3.03 µM) | > 64 µg/mL | > 64 µg/mL | > 64 µg/mL | > 64 µg/mL | 23 µg/mL (≈ 49.8 µM) | -0.38 | 240 µM (≈ 111 µg/mL) | 0.14 |  |  |  | pKa [20]: 3.7
CO[C@@H]1[C@@H](OC(N)=O)[C@@H](O)[C@H](Oc2ccc3c(O)c(NC(=O)c4ccc(O)c(CC=C(C)C)c4)c(=O)oc3c2C)OC1(C)C [NOVOBIOCIN] |  |  |  |  |  |  |  |  |  |  |  |  |  |  |  |  | MIC [1]: 2 µg/mL (≈ 3.26 µM); MIC [2]: 1 µg/mL (≈ 1.63 µM); MIC [3]: 0.25 µg/mL (≈ 0.408 µM); MIC [4]: 4 µg/mL (≈ 6.53 µM); MIC [5]: 4 µg/mL (≈ 6.53 µM); MIC [6]: 0.25 µg/mL (≈ 0.408 µM); MIC [7]: 0.25 µg/mL (≈ 0.408 µM); MIC [8]: 0.25 µg/mL (≈ 0.408 µM); MIC (Streptococcus pneumoniae): 0.5 µg/mL (≈ 0.816 µM)
CCNC(=O)Nc1cc(-c2nc(C(F)(F)F)cs2)c(-c2cncc(C#N)c2)cn1 | < 10 nM | < 10 nM | 1100 nM | < 10 nM | < 0.084 µg/mL | 0.33 µg/mL (≈ 0.789 µM) | 0.33 µg/mL (≈ 0.789 µM) | 21 µg/mL (≈ 50.2 µM) | > 64 µg/mL | 0.33 µg/mL (≈ 0.789 µM) | 2.8 | 7 µM (≈ 2.93 µg/mL) | 0.059 | 0.23 µg/mL (≈ 0.55 µM) | 110 mL/min/kg | 3.4 L/kg | 
CCNC(=O)Nc1cc(-c2nc(C(F)(F)F)cs2)c(-c2cncc(-c3noc(=O)[nH]3)c2)cn1 | 14 nM | < 10 nM | 1500 nM | 11 nM | 0.74 µg/mL (≈ 1.55 µM) | 48 µg/mL (≈ 101 µM) | 24 µg/mL (≈ 50.3 µM) | > 64 µg/mL | > 64 µg/mL | 12 µg/mL (≈ 25.1 µM) | 0.28 | 830 µM (≈ 396 µg/mL) | 0.011 | 48 µg/mL (≈ 101 µM) | 360 mL/min/kg | 3.5 L/kg | pKa [20]: 5.4
CCNC(=O)Nc1cc(-c2nc(C(F)(F)F)cs2)c(-c2cncc(-c3nnc(C)o3)c2)cn1 | < 10 nM | < 10 nM | 510 nM | 15 nM | 0.05 µg/mL (≈ 0.105 µM) | 0.19 µg/mL (≈ 0.4 µM) | 0.37 µg/mL (≈ 0.778 µM) | 33 µg/mL (≈ 69.4 µM) | > 64 µg/mL | 0.26 µg/mL (≈ 0.547 µM) | 2.4 | 1 µM (≈ 0.475 µg/mL) | 0.11 | 0.26 µg/mL (≈ 0.547 µM) | 123 mL/min/kg | 3.3 L/kg | 
CCNC(=O)Nc1cc(-c2nc(C(F)(F)F)cs2)c(-c2cncc(-c3nc(C)no3)c2)cn1 | 52 nM | < 10 nM | 1400 nM | 25 nM | < 0.095 µg/mL | 0.37 µg/mL (≈ 0.778 µM) | 0.74 µg/mL (≈ 1.56 µM) | > 64 µg/mL | > 64 µg/mL | 0.74 µg/mL (≈ 1.56 µM) | 3.4 | < 1 µM | 0.063 | 0.19 µg/mL (≈ 0.4 µM) | 100 mL/min/kg | 11 L/kg | 
CCNC(=O)Nc1cc(-c2nc(C(F)(F)F)cs2)c(-c2cncc(-c3c(C)noc3C)c2)cn1 | 300 nM | 68 nM | 4800 nM | 53 nM | 4.6 µg/mL (≈ 9.42 µM) | > 9 µg/mL |  | > 9 µg/mL | > 9 µg/mL | > 9 µg/mL | 3.5 | 6 µM (≈ 2.93 µg/mL) | 0.045 |  |  |  | 
CCNC(=O)Nc1cc(-c2nc(C(F)(F)F)cs2)c(-c2cncc(/C(N)=N/O)c2)cn1 | 73 nM | 32 nM | 2000 nM | 21 nM | < 0.01 µg/mL | 0.36 µg/mL (≈ 0.797 µM) | 0.18 µg/mL (≈ 0.399 µM) | 1.4 µg/mL (≈ 3.1 µM) | > 64 µg/mL | 0.18 µg/mL (≈ 0.399 µM) | 2.2 | 4 µM (≈ 1.81 µg/mL) | 0.35 | 0.72 µg/mL (≈ 1.59 µM) | 22 mL/min/kg |  | 
C[C@H]1COc2c(N3CCN(C)CC3)c(F)cc3c(=O)c(C(=O)O)cn1c23.C[C@H]1COc2c(N3CCN(C)CC3)c(F)cc3c(=O)c(C(=O)O)cn1c23.O [LEVOFLOXACIN] |  |  |  |  |  | 0.13 µg/mL |  |  |  |  |  |  |  | 4 µg/mL |  |  | MIC [1]: 0.5 µg/mL; MIC [2]: 1 µg/mL; MIC [3]: 1 µg/mL; MIC [4]: 0.5 µg/mL; MIC [5]: 0.5 µg/mL; MIC [6]: 16 µg/mL; MIC [7]: 16 µg/mL; MIC [8]: 32 µg/mL
CCNC(=O)Nc1cc(-c2nc(C(F)(F)F)cs2)c(-c2cncc(C(=O)O)c2)cn1 | < 10 nM | < 10 nM | 510 nM | < 10 nM | 2 µg/mL (≈ 4.57 µM) | > 64 µg/mL | 64 µg/mL (≈ 146 µM) | > 64 µg/mL | > 64 µg/mL | 16 µg/mL (≈ 36.6 µM) | -0.62 | 800 µM (≈ 350 µg/mL) | 0.082 |  |  |  | pKa [20]: 3.7
